Reference: the NIST ThermoML archive (doi:10.1021/je0301794)

Test: xn = mol fraction of the nth substance listed
Conditions: 101.3 kPa, Liquid

COC(=O)OC [dimethyl carbonate] + CCCCCCCC
Conditions | mass density [kg/m3]
298.15 K, x1 = 0.9502 | 1027.7
298.15 K, x1 = 1 | 1063.5
303.15 K, x1 = 0.0519 | 702.9
303.15 K, x1 = 0.0827 | 708.3
303.15 K, x1 = 0.1947 | 729.9
303.15 K, x1 = 0.2829 | 749.4
303.15 K, x1 = 0.3948 | 778.1
303.15 K, x1 = 0.4942 | 807.5
303.15 K, x1 = 0.5964 | 842.4
303.15 K, x1 = 0.6983 | 883.1
303.15 K, x1 = 0.7886 | 925.2
303.15 K, x1 = 0.8946 | 984.3
303.15 K, x1 = 0.9545 | 1023.4
303.15 K, x1 = 1 | 1056.5
313.15 K, x1 = 0.0512 | 694.5
313.15 K, x1 = 0.1005 | 703
313.15 K, x1 = 0.186 | 719.2
313.15 K, x1 = 0.301 | 744.5
313.15 K, x1 = 0.4072 | 771.6
313.15 K, x1 = 0.5002 | 799.1
313.15 K, x1 = 0.6042 | 834.5
313.15 K, x1 = 0.709 | 876.3
313.15 K, x1 = 0.7993 | 918.8
313.15 K, x1 = 0.8465 | 944
313.15 K, x1 = 0.9524 | 1009.1
313.15 K, x1 = 1 | 1043.4
318.15 K, x1 = 0.0823 | 695.4
318.15 K, x1 = 0.1827 | 714.2
318.15 K, x1 = 0.2965 | 738.7
318.15 K, x1 = 0.3626 | 754.9
318.15 K, x1 = 0.436 | 774.6
318.15 K, x1 = 0.5156 | 798.6
318.15 K, x1 = 0.5606 | 813.4
318.15 K, x1 = 0.6305 | 838.7
318.15 K, x1 = 0.6756 | 856.4
318.15 K, x1 = 0.7428 | 885.6
318.15 K, x1 = 0.7845 | 905.6
318.15 K, x1 = 0.8233 | 925.5
318.15 K, x1 = 0.8711 | 951.7
318.15 K, x1 = 0.9071 | 973.5
318.15 K, x1 = 0.964 | 1010.8
318.15 K, x1 = 0.9761 | 1019.5
318.15 K, x1 = 1 | 1036.9
